Results reported in paper PMC10508484, “Development and application of a PBPK modeling strategy to support antimalarial drug development” (CPT: Pharmacometrics & Systems Pharmacology, 2023).
Several values for one entry are separate records, joined by “and”; a condition that tells them apart may be missing. Equal values may be shown once. Read-outs that look alike come from different tables or passages of the source.

Key:
[1] = PBPK input; ref Charman et al., 2020 1; cited from earlier work
[2] = cited from earlier work; for fu: PBPK input
CYP3A4 [3] = molecular target: T1, CYP3A4 (Homo sapiens, UniProt P08684); details: cited from earlier work
CYP3A4 [4] = molecular target: T1, CYP3A4
Source text: (§1) In nearly all cases the fraction of systemic elimination metabolised by a given enzyme (fm) determined in vitro was unavailable in the literature.

CYP2B6 [5] = experiment: Metabolism by CYP2B6 (CLint, Vmax, Km, fm); type: in vitro ADME, human; details: fraction metabolised used in the PBPK model (artemether: without induction)
Source text: as §1

Caco-2 cells = details: cited from earlier work
[6] = PBPK simulation of drug-drug interactions (Simcyp V19); set-up: species or system human; details: ratio of simulated to clinically observed AUC ratio; DDI of the respective line of Table S3
Source text: Here, we provide three example applications where the available PBPK models were used to address questions relating to DDI assessment. […] Additional simulation methods are provided in Appendix S1.
All simulations, including the ones performed for the applications, were run using Version 19 of the Simcyp population-based PBPK simulator (Simcyp (Certara), Sheffield, UK) and unless stated otherwise, input parameters for all drugs are as specified (Supplementary Information Table S1). All simulations were run using ten virtual trials that were matched as closely as possible to the clinical study volunteers in terms of the number of subjects, their age, the proportion of males/females and according to the same study design.

[7] = cited from earlier work
[8] = cited from earlier work; remark: listed apart in the source
CYP2B6 [9] = system: CYP2B6; set-up: method as in Honda et al., 2011 12; details: ref Honda et al., 2011 12; cited from earlier work
[10] = In vitro flags for victim and perpetrator properties conferring DDI liability; type: in vitro ADME, human; details: in vitro flag, mainly based on in vitro determinations
[11] = 2020 1, cited from earlier work
[12] = cited from earlier work; remark: listed apart in the source
CYP2C9 = details: ref mefloquine Karbwang et al., 1988 58; tafenoquine Charman et al., 2020 1; cited from earlier work
[13] = Fraction unbound in human liver microsomes (fumic); details: extrapolated from value measured at 0.4 mg/mL to 0.1 mg/mL, method of Austin et al., 2002
CYP1A2 = details: read-out: CYP1A2 IC50; ref Charman et al., 2020 1; cited from earlier work
[14] = calibrated against propranolol, plasma as medium for atovaquone and piperaquine, ref Charman et al., 2020 1
[15] = 80 mg BID (Day 22-24) + rifampicin 600 mg QD (Days 1-24), HIV-infected, ref Lamorde et al., 2013 3
[16] = 80 mg BID (Days 13-15) + efavirenz 600 mg QD (Days 1-16), ref Huang et al., 2012 4
[17] = 80 mg SD (Day 1) + ketoconazole 400 mg SD (Day 1), 200 mg QD (Days 2-5), ref Lefevre et al., 2002 2

T1 sequence (P08684 whole entry): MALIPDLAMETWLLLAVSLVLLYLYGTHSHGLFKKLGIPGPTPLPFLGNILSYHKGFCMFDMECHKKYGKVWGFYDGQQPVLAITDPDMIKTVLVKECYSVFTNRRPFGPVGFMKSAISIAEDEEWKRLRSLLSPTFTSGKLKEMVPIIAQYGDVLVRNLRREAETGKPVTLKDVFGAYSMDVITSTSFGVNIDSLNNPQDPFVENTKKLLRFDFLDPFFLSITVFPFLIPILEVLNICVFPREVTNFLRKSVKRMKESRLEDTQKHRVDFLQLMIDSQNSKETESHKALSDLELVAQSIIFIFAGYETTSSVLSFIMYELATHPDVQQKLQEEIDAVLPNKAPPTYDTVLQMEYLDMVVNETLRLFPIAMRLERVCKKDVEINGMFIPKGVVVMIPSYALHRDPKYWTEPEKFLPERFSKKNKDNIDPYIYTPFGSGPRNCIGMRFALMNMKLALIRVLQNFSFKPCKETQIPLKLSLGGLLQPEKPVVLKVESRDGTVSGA

## CO[C@H]1O[C@@H]2O[C@@]3(C)CC[C@H]4[C@H](C)CC[C@@H]([C@H]1C)[C@@]24OO3 [Artemether, artemether]
[1]
  Log P: 3.7
[2]; ref Charman et al., 2020 1
  fu: 0.038
CYP3A4 [3]
  CYP3A4 Vmax reported: 12.3 pmol/min/pmol
  Km: 8.24 µM
CYP3A4 [4]
  fmCYP3A4: 53%
CYP2B6 [5]
  fmCYP2B6: 47%
Caco-2 cells; [14]
  Caco-2 (Papp A-B): 42.7 10-6 cm/s
[6]
  AUC ratios Sim/Obs: 1.00 and 1.08 and 1.15
[7]; 80 mg BID (Day 3 PM), 60-72 h, ref Huang et al., 2012 8
  AUC Obs: 59.5 ng·h/mL
[7]; 80 mg BID (Day 3 PM), 62-72 h, ref Lefevre et al., 2002 7
  AUC Obs: 61.4 ng·h/mL
[7]; 80 mg BID (Day 3 PM), ref Huang et al., 2012 8
  Cmax Obs: 21.2 ng/mL
[7]; 80 mg BID (Day 3 PM), ref Lefevre et al., 2002 7
  Cmax Obs: 30.8 ng/mL
[7]; 80 mg SD, Indian, 0-inf, ref Lefevre et al., 2013 6
  AUC Obs: 408 ng·h/mL
[7]; 80 mg SD, Indian, ref Lefevre et al., 2013 6
  Cmax Obs: 113 ng/mL
[7]; 80 mg SD, 0-inf, ref Lefevre et al., 2002 5
  AUC Obs: 320 ng·h/mL
[7]; 80 mg SD, ref Lefevre et al., 2002 5
  Cmax Obs: 104 ng/mL
[8]; [15]
  AUC ratio Obs: 0.11
  Cmax ratio Obs: 0.18
[8]; [16]
  AUC ratio Obs: 0.49
  Cmax ratio Obs: 0.79
[8]; [17]
  AUC ratio Obs: 2.51
  Cmax ratio Obs: 2.24
CYP2B6 [9]
  CYP2B6 Vmax reported: 17.9 pmol/min/pmol
  Km: 1.95 µM
[10]
  Risk as a perpetrator: CYP2B6 inducer
  Risk as a victim: Substrate of CYP2B6 and CYP3A4
[11]; PBPK input, ref artemether Colussi et al., 1999 11, atovaquone Rolan et al., 1997 14, Beerahee, 1999 16, Charman et al., azithromycin Pene Dumitrescu et al., 2013 21, DEAQ Winstanley et al., 1987 9, proguanil weighted mean Helsby et al., 1993 61, Wattanagoon et al., 1987 63
  B:P: 0.8

## OC(c1cc(C(F)(F)F)nc2c(C(F)(F)F)cccc12)C1CCCCN1 (centres unmarked) [Mefloquine, mefloquine]
[12]; in vivo, po
  CL PO: 2.09 L/h
[12]; in vivo
  CL renal: 0.07 L/h
CYP3A4 [4]
  fmCYP3A4: 95%
CYP3A4 [4]; microsomes
  CLint CYP3A4: 0.168 µL/min/pmol
Caco-2 cells; Caco-2
  Caco-2 (Papp A-B): 66 10-6 cm/s
[7]; in vivo, 250 mg
  AUC Obs: 116000 ng·h/mL
  Cmax Obs: 310 ng/mL
[7]; in vivo, 750 mg
  AUC Obs: 393500 ng·h/mL
[7]; in vivo, 1000 mg
  AUC Obs: 516000 ng·h/mL
  Cmax Obs: 960 ng/mL
[7]; in vivo, 1500 mg
  Cmax Obs: 1440 ng/mL
[10]
  Risk as a victim: Substrate of CYP3A4
CYP2C9
  Ki: 260 µM

## COc1cc(NC(C)CCCN)c2ncccc2c1 (centres unmarked) [Primaquine, primaquine]
[12]; clinically observed, ref atovaquone Lavelle et al., 1994 17, chloroquine Walker et al., 1987 29, Gustafsson et al., 1983 30, doxycycline Raghuram et al., 1982 48, Nguyen et al., 1989 49, primaquine Mihaly et al., 1985 26, quinine White et al., 1983 77, Paintaud et al., 1993 78
  CL IV: 24.2 L/h
[12]; ref atovaquone Rolan et al., 1997 14, mefloquine Schwartz et al., 1982 57, primaquine White, 1985 62, proguanil (extensive metabolisers) Jeppesen et al., 1997 34, pyronaridine Wattanavijitkul, 2010 74, sulfadoxine assumed with Edstein, 1987 83
  fe (fraction excreted unchanged in urine): < 0.01%
[2]; ref Charman et al., 2020 1
  fu: 0.26
[13]
  fumic: 0.84
CYP1A2
  IC50: < 0.25 µM
Caco-2 cells; [14]
  Caco-2 (Papp A-B): 29 10-6 cm/s
[7]; 15 mg QD (Day 14), 0-inf, ref Ward et al., 1985 14
  AUC Obs: 443 ng·h/mL
[7]; 15 mg QD (Day 14), ref Ward et al., 1985 14
  Cmax Obs: 66 ng/mL
[7]; 15 mg SD, 0-inf, ref Mihaly et al., 1985 12
  AUC Obs: 500 ng·h/mL
[7]; 15 mg SD, 0-inf, ref Ward et al., 1985 14
  AUC Obs: 468 ng·h/mL
[7]; 15 mg SD, ref Mihaly et al., 1985 12
  Cmax Obs: 53 ng/mL
[7]; 15 mg SD, ref Ward et al., 1985 14
  Cmax Obs: 65 ng/mL
[7]; 30 mg SD, 0-inf, ref Hanboonkunupakarn et al., 2014 13
  AUC Obs: 1130 ng·h/mL
[7]; 30 mg SD, 0-inf, ref Jittamala et al., 2015 15
  AUC Obs: 1180 ng·h/mL
[7]; 30 mg SD, ref Hanboonkunupakarn et al., 2014 13
  Cmax Obs: 128 ng/mL
[7]; 30 mg SD, ref Jittamala et al., 2015 15
  Cmax Obs: 139 ng/mL
[7]; 45 mg SD, 0-inf, ref Mihaly et al., 1985 12
  AUC Obs: 1700 ng·h/mL
[7]; 45 mg SD, ref Mihaly et al., 1985 12
  Cmax Obs: 176 ng/mL
[10]
  Risk as a perpetrator: CYP1A2 inhibitor
  Risk as a victim: Substrate of MAO and CYP2D6
[11]; ref Charman et al.
  B:P: 0.82

## COc1cc(C)c2c(Oc3cccc(C(F)(F)F)c3)c(OC)cc(NC(C)CCCN)c2n1 (centres unmarked) [Tafenoquine, tafenoquine]
[12]; clinically observed oral (in vivo) clearance, pyronaridine: blood, ref amodiaquine Winstanley et al., 1987 9, DEAQ Akande et al., 2015 8, Scarsi et al., 2014 35, Tarning et al., 2012 36, Orrell et al., 2008 37, DHA Na-Bangchang et al., 2004 42, lumefantrine Lefevre et al., 2002 52, Hoglund et al., 2015 53, mefloquine Charles et al., 2007 56, proguanil Jeppesen et al., 1997 34, pyronaridine Jittama
  CL PO: 3.08 L/h
[2]; ref atovaquone Mepron Prescribing Information, 2008, Nixon et al., 2013 13, Rolan et al., 1997 14, azithromycin Foulds et al., 1990 20, chloroquine Ofori-Adjei et al., 1986 27, Walker et al., 1983 28, DHA Batty et al., 2004 41 (healthy volunteers), lumefantrine CDER submission 22-269, proguanil Wattanagoon et al., 1987 63, tafenoquine Dow et al., 2020 84
  fu: 0.005
[2]; depending on the methodology used, ref literature
  fu, range reported in the literature: 0.0007 to 0.11
[2]; ref amodiaquine, DEAQ Hietala, 2009 2, atovaquone Nixon et al., 2013 13, DHA Batty et al., 2004 41, mefloquine, tafenoquine (also AGP) Zsila et al., 2008 54
  Main binding protein: HSA
[7]; 300 mg SD, 0-72 h, ref Green et al., 2014 45
  AUC Obs: 10611 ng·h/mL
[7]; 300 mg SD, ref Green et al., 2014 45
  Cmax Obs: 186 ng/mL
[7]; 400 mg QD (3 days), 0-72 h, ref Green et al., 2014 45
  AUC Obs: 41896 ng·h/mL
[7]; 400 mg QD (3 days), ref Green et al., 2014 45
  Cmax Obs: 724 ng/mL
[7]; 600 mg SD, 0-72 h, ref Green et al., 2014 45
  AUC Obs: 22986 ng·h/mL
[7]; 600 mg SD, ref Green et al., 2014 45
  Cmax Obs: 422 ng/mL
[10]
  Risk as a perpetrator: CYP3A4 and CYP2C9 inhibitor
CYP2C9
  Ki: 10 µM
[11]; ref Charman et al.
  B:P: 1.3
